From ChEMBL document CHEMBL4842340, “Development of Cagrilintide, a Long-Acting Amylin Analogue” (J Med Chem, 2021)
pEC50, pIC50: −log10 of the molar value. ≈ marks a conversion by molar mass, not a printed value. *1 amine or outer side, *2 acyl side, *3 side chain or, on linkers, in order; H or OH if unused. Where a SMILES comes first, the peptide text is derived from it. Bridges are numbered along the chain shown (N, C = ends). The star is where a group is joined. C20 diacid = O=C(O)CCCCCCCCCCCCCCCCCCC(=O)*; γGlu = O=C(O)[C@H](CCC(=O)[*:2])N[*:1]

Assays:
[1] = Solubility of the compound in lactate at pH 3 by UPLC analysis; format: physicochemical; conditions: lactate buffer
[2] = Displacement of [125I]-calcitonin from rat calcitonin receptor expressed in tk-ts 13 cells measured after 120 mins by scintillation proximity assay; format: cell-based; conditions: tk-ts13
[3] = Agonist activity at human AMY3R (CT+RAMP3) expressed in Hollex1 cells incubated for 3 hrs by luminescence assay; format: cell-based; conditions: Hollex1, 3 h
[4] = Solubility of the compound in bis-tris propane at pH 7 by UPLC analysis; format: physicochemical; conditions: bis-tris propane buffer
[5] = Solubility of the compound in bis-tris propane at pH 8 by UPLC analysis; format: physicochemical; conditions: bis-tris propane buffer
[6] = Solubility of the compound in bis-tris propane at pH 7.5 by UPLC analysis; format: physicochemical; conditions: bis-tris propane buffer
Insulin (Homo sapiens) [7] = target: Insulin (Homo sapiens) (UniProt P01308); experiment: Effect on insulin (unknown origin) amyloid fibril formation assessed as peptide recovery in HEPES buffer at pH 7.5 measured after 45 hrs by thioflavin-T fluorescence assay relative to control
Sequence of Insulin (Homo sapiens) (P01308 whole entry): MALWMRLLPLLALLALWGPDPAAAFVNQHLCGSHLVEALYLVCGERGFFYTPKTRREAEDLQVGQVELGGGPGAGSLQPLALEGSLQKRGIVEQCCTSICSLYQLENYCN

Homo sapiens [8] = species on record: Homo sapiens; experiment: Ratio of EC50 for human calcitonin receptor expressed in BHK570 cells to EC50 for human AMY3R (CT+RAMP3) expressed in Hollex1 cells; format: cell-based
Rattus norvegicus [9] = species on record: Rattus norvegicus; experiment: Ratio of IC50 for displacement of [125I]-calcitonin from rat calcitonin receptor expressed in tk-ts 13 cells to IC50 for displacement of [125I]-amylin from rat AMY3R (CTR+RAMP3) expressed in BHK-13 cells; format: cell-based
Insulin (Homo sapiens) [10] = target: Insulin (Homo sapiens) (UniProt P01308); experiment: Effect on insulin (unknown origin) amyloid fibril formation assessed as lag time in HEPES buffer at pH 7.5 measured after 45 hrs by thioflavin-T fluorescence assay
[11] = Displacement of [125I]-calcitonin from human calcitonin receptor expressed in tk-ts 13 cells measured after 120 mins by scintillation proximity assay; format: cell-based; conditions: tk-ts13
[12] = Solubility of the compound in bis-tris propane at pH 6 by UPLC analysis; format: physicochemical; conditions: bis-tris propane buffer
Rattus norvegicus [13] = experiment: Reduction in food intake in Sprague-Dawley rat at 3 nmol/kg, sc administered as single dose measured upto 24 hrs relative to control; format: functional; parameters: scale not given: the % may be the effect or the level left; conditions: time hrs <=24
[14] = Displacement of [125I]-amylin from human AMY3R (CTR+RAMP3) expressed in BHK-13 cells measured after 120 mins by scintillation proximity assay; format: cell-based
[15] = Solubility of the compound in lactate at pH 5 by UPLC analysis; format: physicochemical; conditions: lactate buffer
Homo sapiens [16] = species on record: Homo sapiens; experiment: Ratio of IC50 for displacement of [125I]-calcitonin from human calcitonin receptor expressed in tk-ts 13 cells to IC50 for displacement of [125I]-amylin from human AMY3R (CTR+RAMP3) expressed in BHK-13 cells; format: cell-based
[17] = Displacement of [125I]-amylin from rat AMY3R (CTR+RAMP3) expressed in BHK-13 cells measured after 120 mins by scintillation proximity assay; format: cell-based
Insulin (Homo sapiens) [18] = target: Insulin (Homo sapiens) (UniProt P01308); experiment: Effect on insulin (unknown origin) amyloid fibril formation assessed as lag time in glycyl-glycine buffer at pH 4 measured after 45 hrs by thioflavin-T fluorescence assay
Rattus norvegicus [19] = experiment: Reduction in food intake in Sprague-Dawley rat at 3 nmol/kg, sc administered as single dose measured after 24 to 48 hrs relative to control; format: functional; parameters: scale not given: the % may be the effect or the level left; conditions: time 24-48 hrs
[20] = Solubility of the compound in bis-tris propane at pH 6.5 by UPLC analysis; format: physicochemical; conditions: bis-tris propane buffer
[21] = Agonist activity at rat calcitonin receptor expressed in BHK-13 cells assessed as increase in intracellular cAMP concentration incubated for 25 mins by CRE luciferase reporter gene assay; format: cell-based; conditions: BHK-13, 25 min
[22] = Agonist activity at human calcitonin receptor expressed in BHK570 cells assessed as increase in intracellular cAMP concentration incubated for 3 hrs in absence of albumin by CRE luciferase reporter gene assay; format: cell-based; conditions: BHK570, 3 h
[23] = Agonist activity at rat AMY3R (CT+RAMP3) expressed in tk-ts13 cells assessed as increase in intracellular cAMP level incuabted for 25 mins by CRE luciferase reporter gene assay; format: cell-based; conditions: tk-ts13, 25 min
[24] = Solubility of the compound in lactate at pH 4 by UPLC analysis; format: physicochemical; conditions: lactate buffer
Insulin (Homo sapiens) [25] = target: Insulin (Homo sapiens) (UniProt P01308); experiment: Effect on insulin (unknown origin) amyloid fibril formation assessed as peptide recovery in glycyl-glycine buffer at pH 4 measured after 45 hrs by thioflavin-T fluorescence assay relative to control; parameters: concentration or dose not given beside the values
Rattus norvegicus [26] = species on record: Rattus norvegicus; experiment: Ratio of EC50 for rat calcitonin receptor expressed in BHK-13 cells to EC50 for rat AMY3R (CT+RAMP3) expressed in tk-ts13 cells; format: cell-based
Rattus norvegicus [27] = experiment: Reduction in food intake in Sprague-Dawley rat at 30 nmol/kg, sc administered as single dose measured after 24 to 48 hrs relative to control; format: functional; parameters: scale not given: the % may be the effect or the level left; conditions: time 24-48 hrs
Rattus norvegicus [28] = experiment: Reduction in food intake in Sprague-Dawley rat at 30 nmol/kg, sc administered as single dose measured upto 24 hrs relative to control; format: functional; parameters: scale not given: the % may be the effect or the level left; conditions: time hrs <=24

solubility [1] [µM]	pIC50 [2]	pEC50 [3]	solubility [4] [µM]	solubility [5] [µM]	solubility [6] [µM]	Activity (Insulin (Homo sapiens) [7]) [%]	TIME (Insulin (Homo sapiens) [10]) [h]	pIC50 [11]	solubility [12] [µM]	pIC50 [14]	solubility [15] [µM]	TIME (Insulin (Homo sapiens) [18]) [h]	pEC50 [21]	pEC50 [22]	pEC50 [23]	Activity (Insulin (Homo sapiens) [25]) [%]	SMILES	Ratio EC50 (Homo sapiens [8])	Ratio IC50 (Rattus norvegicus [9])	Activity (Rattus norvegicus [13]) [%]	also measured
200 (≈ 878 µg/mL)	10.74	10.21	200 (≈ 878 µg/mL)	200 (≈ 878 µg/mL)	200 (≈ 878 µg/mL)	19	11	9.94	200 (≈ 878 µg/mL)	9.73	200 (≈ 878 µg/mL)	45	10.12	10.28	9.80	92	CC[C@H](C)[C@H](NC(=O)[C@@H]1CCCN1C(=O)CNC(=O)[C@H](Cc1ccccc1)NC(=O)[C@H](CC(N)=O)NC(=O)[C@H](CC(N)=O)NC(=O)[C@H](CO)NC(=O)[C@H](CO)NC(=O)[C@H](Cc1c[nH]cn1)NC(=O)[C@H](Cc1cnc[nH]1)NC(=O)[C@H](CC(C)C)NC(=O)[C@H](Cc1ccccc1)NC(=O)[C@H](CCC(=O)O)NC(=O)[C@H](C)NC(=O)[C@H](CC(C)C)NC(=O)[C@H](CCCNC(=N)N)NC(=O)[C@H](CCC(N)=O)NC(=O)[C@@H](NC(=O)[C@H](C)NC(=O)[C@@H]1CSSC[C@H](NC(=O)[C@H](CCCCN)NC(=O)CC[C@H](NC(=O)CCCCCCCCCCCCCCCCCCC(=O)O)C(=O)O)C(=O)N[C@@H](CC(N)=O)C(=O)N[C@@H]([C@@H](C)O)C(=O)N[C@@H](C)C(=O)N[C@@H]([C@@H](C)O)C(=O)N1)[C@@H](C)O)C(=O)N[C@@H](CC(C)C)C(=O)N1CCC[C@H]1C(=O)N1CCC[C@H]1C(=O)N[C@H](C(=O)N[C@@H](CC(N)=O)C(=O)N[C@H](C(=O)NCC(=O)N[C@@H](CO)C(=O)N[C@@H](CC(N)=O)C(=O)N[C@H](C(=O)N1CCC[C@H]1C(N)=O)[C@@H](C)O)C(C)C)[C@@H](C)O ({C20 diacid-γGlu}-KCNTATCATQRLAEFLHHSSNNFGPILPPTNVGSNTP-NH2; disulfide 2-7)	1	1	62	Ratio IC50 (Homo sapiens [16]): 1; pIC50 [17]: 10.57; Activity (Rattus norvegicus [19]): 74%; solubility [20]: 200 µM (≈ 878 µg/mL); solubility [24]: 200 µM (≈ 878 µg/mL)
200 (≈ 896 µg/mL)	9.18	9.84	103 (≈ 461 µg/mL)	–	109 (≈ 488 µg/mL)	29	1	8.95	200 (≈ 896 µg/mL)	8.97	200 (≈ 896 µg/mL)	37	9.17	9.83	9.61	91	CC[C@H](C)[C@H](NC(=O)[C@@H]1CCCN1C(=O)CNC(=O)[C@H](Cc1ccccc1)NC(=O)[C@H](CC(N)=O)NC(=O)[C@H](CC(N)=O)NC(=O)[C@H](CO)NC(=O)[C@H](CO)NC(=O)[C@H](Cc1c[nH]cn1)NC(=O)[C@H](Cc1cnc[nH]1)NC(=O)[C@H](CC(C)C)NC(=O)[C@H](Cc1ccccc1)NC(=O)[C@H](CCC(=O)O)NC(=O)[C@H](C)NC(=O)[C@H](CC(C)C)NC(=O)[C@H](CCCNC(=N)N)NC(=O)[C@H](CCC(N)=O)NC(=O)[C@@H](NC(=O)[C@H](C)NC(=O)[C@@H]1CSSC[C@H](NC(=O)[C@H](CCCCN)NC(=O)CC[C@H](NC(=O)CCCCCCCCCCCCCCCCCCC(=O)O)C(=O)O)C(=O)N[C@@H](CC(N)=O)C(=O)N[C@@H]([C@@H](C)O)C(=O)N[C@@H](C)C(=O)N[C@@H]([C@@H](C)O)C(=O)N1)[C@@H](C)O)C(=O)N[C@@H](CC(C)C)C(=O)N1CCC[C@H]1C(=O)N1CCC[C@H]1C(=O)N[C@H](C(=O)N[C@@H](CC(N)=O)C(=O)N[C@H](C(=O)NCC(=O)N[C@@H](CO)C(=O)N[C@@H](Cc1cnc[nH]1)C(=O)N[C@H](C(=O)N[C@@H](Cc1ccc(O)cc1)C(N)=O)[C@@H](C)O)C(C)C)[C@@H](C)O ({C20 diacid-γGlu}-KCNTATCATQRLAEFLHHSSNNFGPILPPTNVGSHTY-NH2; disulfide 2-7)	1	3	58	Ratio EC50 (Rattus norvegicus [26]): 3; Activity (Rattus norvegicus [27]): 90%; Ratio IC50 (Homo sapiens [16]): 1; pIC50 [17]: 9.71; Activity (Rattus norvegicus [19]): 40%; Activity (Rattus norvegicus [28]): 88%; solubility [24]: 200 µM (≈ 896 µg/mL)
200 (≈ 886 µg/mL)	–	9.78	200 (≈ 886 µg/mL)	200 (≈ 886 µg/mL)	200 (≈ 886 µg/mL)	94	45	–	200 (≈ 886 µg/mL)	–	5 (≈ 22.2 µg/mL)	45	8.80	9.74	9.56	57	CC[C@H](C)[C@H](NC(=O)[C@@H]1CCCN1C(=O)CNC(=O)[C@H](Cc1ccccc1)NC(=O)[C@H](CO)NC(=O)[C@H](CO)NC(=O)[C@H](CO)NC(=O)[C@H](CO)NC(=O)[C@H](CCCNC(=N)N)NC(=O)[C@H](Cc1cnc[nH]1)NC(=O)[C@H](CC(C)C)NC(=O)[C@H](Cc1ccccc1)NC(=O)[C@H](CCC(=O)O)NC(=O)[C@H](C)NC(=O)[C@H](CC(C)C)NC(=O)[C@H](CCCNC(=N)N)NC(=O)[C@H](CCC(N)=O)NC(=O)[C@@H](NC(=O)[C@H](C)NC(=O)[C@@H]1CSSC[C@H](NC(=O)[C@H](Cc2cnc[nH]2)NC(=O)CC[C@H](NC(=O)CCCCCCCCCCCCCCCCCCC(=O)O)C(=O)O)C(=O)N[C@@H](CC(N)=O)C(=O)N[C@@H]([C@@H](C)O)C(=O)N[C@@H](C)C(=O)N[C@@H]([C@@H](C)O)C(=O)N1)[C@@H](C)O)C(=O)N[C@@H](CC(C)C)C(=O)N1CCC[C@H]1C(=O)N1CCC[C@H]1C(=O)N[C@H](C(=O)N[C@@H](CC(=O)O)C(=O)N[C@H](C(=O)NCC(=O)N[C@@H](CO)C(=O)N[C@@H](CC(=O)O)C(=O)N[C@H](C(=O)N[C@@H](Cc1ccc(O)cc1)C(N)=O)[C@@H](C)O)C(C)C)[C@@H](C)O ({C20 diacid-γGlu}-HCNTATCATQRLAEFLHRSSSSFGPILPPTDVGSDTY-NH2; disulfide 2-7)	1	–	–	Ratio EC50 (Rattus norvegicus [26]): 6; solubility [20]: 200 µM (≈ 886 µg/mL)
